{"source": "patent US8273404B2", "about": "“Extraction of solvents from drug containing polymer reservoirs” (Cordis Corporation, priority 2008, dated 2012)", "key": {"[1]": {"test_system": "human coronary artery smooth muscle cell", "experiment": "Inhibition of coronary artery smooth muscle cell proliferation by trichostatin A, in vitro cell culture study", "format": "cell-based", "details": "read-out: anti-proliferative IC50", "from_the_text": "FIG. 51 is a graph of the inhibition of coronary artery smooth muscle cells by trichostatin A in a cell culture study."}, "tumor cell lines": {"test_system": "tumor cell lines", "details": "tumor cell lines (Woo et al.); cited from earlier work"}, "[2]": {"test_system": "human coronary artery smooth muscle cell", "experiment": "MTS cytotoxicity assay of Panzem", "format": "cell-based", "details": "concentrations up to 30,000.00 nanomolar", "from_the_text": "Typically, a control is utilized to determine baseline toxicity."}, "[3]": {"test_system": "human coronary artery smooth muscle cells", "experiment": "Anti-proliferative activity in cultured human coronary artery smooth muscle cells stimulated with two percent fetal bovine serum", "format": "cell-based", "details": "for effect of the added agent on the anti-proliferative activity of rapamycin: agent added to rapamycin treated human coronary artery smooth muscle cells; for effect of the added agent on the anti-proliferative activity of rapamycin / inhibition of human coronary artery smooth muscle cell proliferation (in words): two percent fetal bovine serum; for inhibition of human coronary artery smooth muscle cell proliferation (in words): agent alone", "from_the_text": "The multiple curves represent various concentrations of mycophenolic acid ranging from zero to one thousand nanomolar concentrations.\nFIG. 58 illustrates, in graphical format, the anti-proliferative activity of cladribine in non-synchronized cultured human coronary artery smooth muscle cells stimulated with two percent fetal bovine serum.\nThe multiple curves represent various concentrations of cladribine ranging from zero to nine hundred nanomolar concentrations.\n(§1) The multiple curves represent various concentrations of topotecan ranging from zero to three hundred nanomolar concentrations.\n(§2) The multiple curves represent various concentrations of etoposide ranging from zero to eight hundred nanomolar concentrations.\nThe multiple curves represent various concentrations of Panzem® ranging from zero to 100 micromolar concentrations.\nCurve 8702 illustrates the percent inhibition for various concentrations. In FIG. 88, the six curves 8802, 8804, 8806, 8808, 8810 and 8812 represent various concentrations of PX867 with various concentrations of sirolimus. […] More specifically, curve 8812 illustrates the percent inhibition for a 240 nM PX-867 concentration. […] This may be compared to curve 8804 which represents a 15 nM PX-867 concentration."}, "[4]": {"experiment": "In vivo release kinetics from coated stents, porcine pharmacokinetics studies", "details": "combination coatings with rapamycin", "from_the_text": "The topcoat is two hundred micro grams.\nFIG. 61 is a graphical representation of the in vivo release kinetics of cladribine from a polymeric coating on Bx Velocity® stents, available from Cordis Corporation, implanted in a Yorkshire pig. The basecoat comprises an 85/15 ratio of PVDF and HFP and cladribine for a total combined weight of one thousand eight hundred micrograms (cladribine comprising thirty percent of the total weight). The topcoat comprises an 85/15 ratio of PVDF/HFP and no cladribine. The total weight of the topcoat is three hundred micrograms.\n(§3) The basecoat is applied to Bx Velocity® stents and implanted into Yorkshire pigs.\nas §3\nAnother critical parameter for the performance of the thrombus resistance of a device coated with cilostazol is the duration of the drug release from the coating. This is of particular significance in the two weeks after device implantation. […] The purpose of the porcine PK study is to assess the local pharmacokinetics of a drug eluting stent at a given implantation time. Normally three stents are implanted in three different coronary arteries in a pig for a given time point and then retrieved for total drug recovery analysis. The stents are retrieved at predetermined time points; namely, 1, 3 and 8 days. The stents are extracted and the total amount of drug remaining on the stents is determined by analysis utilizing HPLC (high performance liquid chromatography) for total drug amount. The difference between the original amount of drug on the stent and the amount of drug retrieved at a given time represents the amount of drug released in that period. The continuous release of drug into surrounding arterial tissue is what prevents the neointimal growth and restenosis in the coronary artery. A normal plot represents the percentage of total drug released (%, y-axis) vs. time of implantation (day, x-axis). […] Curve 8102 represents cilostazol and curve 8104 represents sirolimus. […] In this exemplary configuration, the stent 8300 is coated with two layers. […]"}, "[5]": {"experiment": "Cell viability assay (cytotoxicity of topotecan, etoposide)", "format": "cell-based", "from_the_text": "as §1, §2"}, "[6]": {"experiment": "In vitro release kinetics from coated stents", "format": "physicochemical", "details": "single-layer sirolimus/cilostazol coating of FIG. 83"}, "[7]": {"experiment": "Injectable liquid formulations of paclitaxel: composition and observation", "format": "physicochemical", "from_the_text": "This solution remained clear."}, "[8]": {"experiment": "Liquid formulations of sirolimus and CCI-779: concentration by liquid chromatography/HPLC, visual observation", "format": "physicochemical"}}, "note": "pIC50: −log10 of the molar value."}
{"smiles": "CC(/C=C/C(=O)NO)=C\\[C@@H](C)C(=O)c1ccc(N(C)C)cc1", "note": "[trichostatin A]", "values": [{"measurement": "pIC50", "setting": "[1]", "result": "~8.22"}, {"measurement": "anti-proliferative IC50's", "setting": "tumor cell lines", "result": "low nM range"}]}
{"smiles": "COc1cc2c(cc1O)CC[C@@H]1[C@@H]2CC[C@]2(C)[C@@H](O)CC[C@@H]12", "note": "[Panzem®, 2-methoxyestradiol]", "values": [{"measurement": "cell survival in MTS assay", "setting": "[2]", "result": "do not reduce human coronary artery smooth muscle cell survival"}, {"measurement": "effect of the added agent on the anti-proliferative activity of rapamycin", "setting": "[3]", "result": "increases the percent of inhibition of rapamycin alone"}, {"measurement": "inhibition of human coronary artery smooth muscle cell proliferation (in words)", "setting": "[3]", "result": "extremely effective inhibitor"}]}
{"smiles": "COC[C@H]1OC(=O)/C(=C\\N2CCCC2)C2=C(O)C(=O)C3=C([C@H](OC(C)=O)C[C@]4(C)C(=O)CC[C@@H]34)[C@]21C", "note": "[PX-867]", "values": [{"measurement": "percent inhibition of coronary artery smooth muscle cell proliferation", "setting": "[3]; PX867 alone at a concentration of about 10^−6", "result": "close to one hundred percent inhibition"}, {"measurement": "effect of the added agent on the anti-proliferative activity of rapamycin", "setting": "[3]", "result": "strong synergistic effect"}]}
{"smiles": "COc1c(C)c2c(c(O)c1C/C=C(\\C)CCC(=O)O)C(=O)OC2", "note": "[mycophenolic acid]", "values": [{"measurement": "effect of the added agent on the anti-proliferative activity of rapamycin", "setting": "[3]", "result": "potentiates the anti-proliferative activity of rapamycin"}, {"measurement": "relative elution from polymeric stent coating in vivo (in words)", "setting": "[4]", "result": "elutes more completely over a shorter duration than the rapamycin"}]}
{"smiles": "CC[C@@]1(O)C(=O)OCc2c1cc1n(c2=O)Cc2cc3c(CN(C)C)c(O)ccc3nc2-1", "note": "[topotecan]", "values": [{"measurement": "cytotoxicity in cell viability assay", "setting": "[5]; concentrations up to one micromolar", "result": "non-cytotoxic"}, {"measurement": "effect of the added agent on the anti-proliferative activity of rapamycin", "setting": "[3]", "result": "potentiate the anti-proliferative activity of rapamycin"}]}
{"smiles": "O=C1CCc2cc(OCCCCc3nnnn3C3CCCCC3)ccc2N1", "note": "[cilostazol, 6[4-(1-cyclohexyl-1H-tetrazol-5-yl)-butoxy]-3,4-dihydro-2-(1H)-quinolinone]", "values": [{"measurement": "release in vitro", "setting": "[6]", "result": "~35", "unit": "%"}]}
{"smiles": "COc1cc([C@@H]2c3cc4c(cc3[C@@H](O[C@@H]3O[C@@H]5CO[C@@H](C)O[C@H]5[C@H](O)[C@H]3O)[C@H]3COC(=O)[C@H]23)OCO4)cc(OC)c1O", "note": "[etoposide]", "values": [{"measurement": "cytotoxicity in cell viability assay", "setting": "[5]; concentrations up to ten micromolar", "result": "non-cytotoxic"}, {"measurement": "effect of the added agent on the anti-proliferative activity of rapamycin", "setting": "[3]", "result": "potentiate the anti-proliferative activity of rapamycin"}]}
{"smiles": "CC(=O)O[C@H]1C(=O)[C@@]2(C)[C@H]([C@H](OC(=O)c3ccccc3)[C@]3(O)C[C@H](OC(=O)[C@H](O)[C@@H](NC(=O)c4ccccc4)c4ccccc4)C(C)=C1C3(C)C)[C@]1(OC(C)=O)CO[C@@H]1C[C@@H]2O", "note": "[paclitaxel]", "values": [{"measurement": "paclitaxel concentration as true liquid formulation", "setting": "[7]", "result": "up to 2.5 mg/ml"}, {"measurement": "fold higher than the solubility of paclitaxel in water", "setting": "[7]; 2.5 mg/ml formulation", "result": "about 1000 fold"}]}
{"smiles": "CO[C@H]1C[C@@H]2CC[C@@H](C)[C@@](O)(O2)C(=O)C(=O)N2CCCC[C@H]2C(=O)O[C@H]([C@H](C)C[C@@H]2CC[C@@H](OC(=O)C(C)(CO)CO)[C@H](OC)C2)CC(=O)[C@H](C)/C=C(\\C)[C@@H](O)[C@@H](OC)C(=O)[C@H](C)C[C@H](C)/C=C/C=C/C=C/1C", "note": "[CCI-779]", "values": [{"measurement": "concentration of CCI-779 in the final solution (HPLC)", "setting": "[8]; ethanol, Vitamin E TPGS, water", "result": 15000, "unit": "µg/mL"}]}
{"smiles": "Nc1nc(Cl)nc2c1ncn2[C@H]1C[C@H](O)[C@@H](CO)O1", "note": "[cladribine, 2-chlorodeoxyadenosine]", "values": [{"measurement": "effect of the added agent on the anti-proliferative activity of rapamycin", "setting": "[3]", "result": "potentiate the anti-proliferative activity of rapamycin"}, {"measurement": "inhibition of human coronary artery smooth muscle cell proliferation (in words)", "setting": "[3]", "result": "completely inhibits human coronary artery smooth muscle cell proliferation"}, {"measurement": "relative elution from polymeric stent coating in vivo (in words)", "setting": "[4]", "result": "elutes more rapidly than rapamycin"}]}
{"smiles": "CO[C@H]1C[C@@H]2CC[C@@H](C)[C@@](O)(O2)C(=O)C(=O)N2CCCC[C@H]2C(=O)O[C@H]([C@H](C)C[C@@H]2CC[C@@H](O)[C@H](OC)C2)CC(=O)[C@H](C)/C=C(\\C)[C@@H](O)[C@@H](OC)C(=O)[C@H](C)C[C@H](C)/C=C/C=C/C=C/1C", "note": "[rapamycin]", "values": [{"measurement": "sirolimus concentration relative to the solubility of sirolimus in water", "setting": "[8]; 4 mg/ml PEG 200 formulation", "result": "about four hundred to about one thousand times higher"}, {"measurement": "relative elution from polymeric stent coating in vivo (in words)", "setting": "[4]", "result": "slower release rate than that of mycophenolic acid"}]}
